Measurements reported in patent US20260125360A1, “HERBICIDAL IMIDAZOLE COMPOUNDS” (SYNGENTA CROP PROTECTION AG, priority 2022, published 2026).

What was measured:
Format in all cases: in vivo
Details in all cases: 250 g/ha, evaluated after 13 days
[1] = tested on: Ipomoea hederacea (IPOHE); experiment: Post-emergence herbicide glasshouse test
Description: (§1) Seeds of a variety of test species are sown in standard soil in pots Amaranthus palmeri (AMAPA), Amaranthus retoflexus (AMARE), Echinochloa crus-galli (ECHCG), Ipomoea hederacea (IPOHE)). After cultivation for one day (pre-emergence) or after 8 days cultivation (post-emergence) under controlled conditions in a glasshouse (at 24/16° C., day/night; 14 hours light; 65% humidity), the plants are sprayed with an aqueous spray solution derived from the formulation of the technical active ingredient in acetone/water (50:50) solution containing 0.5% Tween 20 (polyoxyethelyene sorbitan monolaurate, CAS RN 9005-64-5). Compounds are applied at 250 g/ha unless otherwise stated. The test plants are then grown in a glasshouse under controlled conditions in a glasshouse (at 24/16° C., day/night; 14 hours light; 65% humidity) and watered twice daily. After 13 days for pre and post-emergence, the test is evaluated for the percentage damage caused to the plant. The biological activities are shown in the following table on a five-point scale (5=81-100%; 4=61-80%; 3=41-60%; 2=21-40%; 1=0-20%).

[2] = tested on: Echinochloa crus-galli (ECHCG); experiment: Post-emergence herbicide glasshouse test
Description: as §1

[3] = tested on: Amaranthus palmeri (AMAPA); experiment: Post-emergence herbicide glasshouse test
Description: as §1

[4] = tested on: Amaranthus retoflexus (AMARE); experiment: Post-emergence herbicide glasshouse test
Description: as §1

[5] = tested on: Ipomoea hederacea (IPOHE); experiment: Pre-emergence herbicide glasshouse test
Description: as §1

[6] = tested on: Echinochloa crus-galli (ECHCG); experiment: Pre-emergence herbicide glasshouse test
Description: as §1

[7] = tested on: Amaranthus palmeri (AMAPA); experiment: Pre-emergence herbicide glasshouse test
Description: as §1

[8] = tested on: Amaranthus retoflexus (AMARE); experiment: Pre-emergence herbicide glasshouse test
Description: as §1

Row | SMILES | percentage damage caused to the plant, IPOHE (five-point scale) [1] | percentage damage caused to the plant, ECHCG (five-point scale) [2] | percentage damage caused to the plant, AMAPA (five-point scale) [3] | percentage damage caused to the plant, AMARE (five-point scale) [4] | percentage damage caused to the plant, IPOHE (five-point scale) [5] | percentage damage caused to the plant, ECHCG (five-point scale) [6] | percentage damage caused to the plant, AMAPA (five-point scale) [7] | percentage damage caused to the plant, AMARE (five-point scale) [8]
1 | Cn1cc(Cn2cc(C(F)(F)F)nc2-c2ccc(Cl)nc2)nn1 [Compound 1.057] | 4 (4=61-80%) | 4 (4=61-80%) | 4 (4=61-80%) | 4 (4=61-80%) | 5 (5=81-100%) | 4 (4=61-80%) | 5 (5=81-100%) | 5 (5=81-100%)
2 | FC(F)c1cc(Cn2cc(C(F)(F)F)nc2-c2ccc(Cl)nc2)no1 [Compound 1.059] | 5 (5=81-100%) | 5 (5=81-100%) | 5 (5=81-100%) | 5 (5=81-100%) | 5 (5=81-100%) | 5 (5=81-100%) | 5 (5=81-100%) | 5 (5=81-100%)
3 | CCn1ccc(Cn2cc(C(F)(F)F)nc2-c2ccc(Cl)nc2)n1 [Compound 1.063] | 3 (3=41-60%) | 1 (1=0-20%) | 5 (5=81-100%) | 5 (5=81-100%) | 5 (5=81-100%) | 1 (1=0-20%) | 5 (5=81-100%) | 5 (5=81-100%)
4 | Cc1nnc(Cn2cc(C(F)(F)F)nc2-c2ccc(Cl)nc2)s1 [Compound 1.065] | 1 (1=0-20%) | 1 (1=0-20%) | 5 (5=81-100%) | 5 (5=81-100%) | 5 (5=81-100%) | 1 (1=0-20%) | 5 (5=81-100%) | 5 (5=81-100%)
5 | Cn1nnc(Cn2cc(C(F)(F)F)nc2-c2ccc(Cl)nc2)c1C(F)F [Compound 1.070] | 4 (4=61-80%) | 1 (1=0-20%) | 4 (4=61-80%) | 4 (4=61-80%) | 4 (4=61-80%) | 1 (1=0-20%) | 5 (5=81-100%) | 5 (5=81-100%)
6 | Cc1cc(Cn2cc(C(F)(F)F)nc2-c2ccc(Cl)nc2)no1 [Compound 1.075] | 5 (5=81-100%) | 5 (5=81-100%) | 5 (5=81-100%) | 5 (5=81-100%) | 5 (5=81-100%) | 5 (5=81-100%) | 5 (5=81-100%) | 5 (5=81-100%)
7 | FC(F)(F)c1cn(Cc2ccsn2)c(-c2ccc(Cl)nc2)n1 [Compound 1.077] | 1 (1=0-20%) | 1 (1=0-20%) | 4 (4=61-80%) | 4 (4=61-80%) | 1 (1=0-20%) | 1 (1=0-20%) | 5 (5=81-100%) | 5 (5=81-100%)
8 | Cn1nc(Cn2cc(C(F)(F)F)nc2-c2ccc(Cl)nc2)cc1Cl [Compound 1.084] | 4 (4=61-80%) | 1 (1=0-20%) | 4 (4=61-80%) | 4 (4=61-80%) | 5 (5=81-100%) | 3 (3=41-60%) | 5 (5=81-100%) | 5 (5=81-100%)
9 | CCn1nnc(Cn2cc(C(F)(F)F)nc2-c2ccc(Cl)nc2)n1 [Compound 1.086] | 5 (5=81-100%) | 5 (5=81-100%) | 5 (5=81-100%) | 5 (5=81-100%) | 5 (5=81-100%) | 5 (5=81-100%) | 5 (5=81-100%) | 5 (5=81-100%)
10 | Cn1cnc(Cn2cc(C(F)(F)F)nc2-c2ccc(Cl)nc2)n1 [Compound 1.087] | 5 (5=81-100%) | 5 (5=81-100%) | 5 (5=81-100%) | 5 (5=81-100%) | 5 (5=81-100%) | 5 (5=81-100%) | 5 (5=81-100%) | 5 (5=81-100%)
11 | CCc1nc(Cn2cc(C(F)(F)F)nc2-c2ccc(Cl)nc2)no1 [Compound 1.090] | 5 (5=81-100%) | 4 (4=61-80%) | 5 (5=81-100%) | 5 (5=81-100%) | 5 (5=81-100%) | 4 (4=61-80%) | 5 (5=81-100%) | 5 (5=81-100%)
12 | CCc1cnc(Cn2cc(C(F)(F)F)nc2-c2ccc(Cl)nc2)o1 [Compound 1.092] | 4 (4=61-80%) | 5 (5=81-100%) | 4 (4=61-80%) | 4 (4=61-80%) | 5 (5=81-100%) | 5 (5=81-100%) | 5 (5=81-100%) | 5 (5=81-100%)
13 | Cc1cnc(Cn2cc(C(F)(F)F)nc2-c2ccc(Cl)nc2)o1 [Compound 1.094] | 3 (3=41-60%) | 4 (4=61-80%) | 5 (5=81-100%) | 5 (5=81-100%) | 4 (4=61-80%) | 5 (5=81-100%) | 5 (5=81-100%) | 5 (5=81-100%)
14 | Cc1coc(Cn2cc(C(F)(F)F)nc2-c2ccc(Cl)nc2)n1 [Compound 1.096] | 3 (3=41-60%) | 4 (4=61-80%) | 5 (5=81-100%) | 5 (5=81-100%) | 5 (5=81-100%) | 5 (5=81-100%) | 5 (5=81-100%) | 5 (5=81-100%)
15 | Cc1nc(Cn2cc(C(F)(F)F)nc2-c2ccc(Cl)nc2)no1 [Compound 1.097] | 5 (5=81-100%) | 5 (5=81-100%) | 5 (5=81-100%) | 5 (5=81-100%) | 5 (5=81-100%) | 5 (5=81-100%) | 5 (5=81-100%) | 5 (5=81-100%)
